In brackets after ≈: the same amount, converted by molar mass.
Columns and labels:
M. tuberculosis H37Rv = assay: In vivo efficacy in murine model of M. tuberculosis H37Rv infection; parameters: species or system mice (BALB/c); settings: for Log10 CFU/left Lung (mean ± SD): BALB/c mice, intranasal infection, treatment from 1 week post infection, PO once daily for 4 weeks, RIF 20 mg/kg, 3f 25 mg/kg
Protocol: The Compound 3f used in this study ([…]). The compound 3f was tested in vivo at 25 mg/kg. Rifampicin at 20 mg/kg was also tested as positive control. For in vivo studies compound and rifampicin was dissolved in pure DMSO and formulation was prepared 50% PEG in water for oral administration. The final concentration of DMSO was less than 0.1% v/v.
The institutional animal Ethics committee of the Indian Institute of Integrative Medicine (CSIR, Jammu) approved all experimental protocols with animals and the use of animals. The animals were bred and maintained under standard husbandry conditions; viz. humidity, temperature (25±2° C.). 8-week-old female (BALB/c) mice 20-22 gm by weight were used for the efficacy studies. Animals were allowed 1 week of acclimation before intake into experimental studies. Feed and water were given ad libitum.
Infection of M. tuberculosis:
M. tuberculosis (H37Rv) for infection was grown by the culturing of bacteria from Lowenstein-Jensen slant in Middlebrooke 7H9 medium on a rotary shaker for 10 days at 37° C. […] The mice were sacrificed after week post infection (early control), and bacterial numbers in the lungs were determined by macerating the organs (lung) and plating serial tenfold serial dilution on Middlebrook 7H10 agar plates in triplicates. […]
Eight infected mice were sacrificed from the control group 7 day after the infection (before the initiation of treatment) to obtain the initial CFU load of M. tuberculosis H37Rv at the initiation of treatment. […] Viable bacteria were quantitated by plating 10-fold serial dilutions in duplicates on Middlebrook, 7H10 agar supplemented with 10% OADC (oleic acid albumin dextrose catalase, Becton Dickinson, Sparks, Md.) and incubated at 37° C. in 5% CO2 for 4-6 weeks. CFU per organ sample was counted and expressed as log10 CFU per organ. CFU during in-vivo studies were determined on Middlebrook 7H10 plates supplement with 10% OADC containing Vancomycin 10 μg/ml, Amphoterecin 10 μg/ml, Nalidaxic acid 25 μg/ml. […]

[1] = system: M. tuberculosis -617 (MDR- strain); assay: microbe, parasite or virus in culture; type: cell-based, Mycobacterium tuberculosis; settings: for in vitro activity (words): MDR clinical isolates
AML-12 cells = assay: Cytotoxicity assay (MTT) on cell line AML-12; type: cell-based
Protocol: The study was carried out using AML-12 cells line (ATCC-USA). Cells were grown in Dulbecco's Modified Eagle's Medium (DMEM) containing 10% fetal calf serum (FCS) and supplemented with 100 units/ml penicillin, 100 μg/ml streptomycin, 0.005 mg/ml insulin, 0.005 mg/ml transferrin, 5 ng/ml selenium, and 40 ng/ml dexamethasone, in a humidified atmosphere in 5% CO2 at 37° C., and were sub-cultured at 1:5 ratio once a week.
Cells were plated at a density of 3×10^4 cells/cm^2 and maintained in culture medium for 12 h after trypsinization. Cells were seeded onto 96-well plates and FCS was reduced to 5% for the experiment. Stock solutions of compound 3f were prepared fresh to avoid oxidation. Cells were incubated with the compounds (2-100 μg/ml) for 24 hrs.
After the completion of treatment, the medium was removed and cell viability was evaluated by assaying for the ability of functional mitochondria to catalyze the reduction of 3-(4,5-dimethylthiazol-2-yl)-2,5-diphenyltetrazolium bromide (MTT) to form formazan salt by mitochondrial dehydrogenases, and determined by Elisa reader at 565 nm (Multiskan Spectrum; Thermo Electron Corporation, USA). Percentage cytotoxicity was calculated with respect to the untreated cells.

[2] = system: M. tuberculosis XDR-1 (XDR- strain); assay: microbe, parasite or virus in culture; type: cell-based, Mycobacterium tuberculosis; settings: for in vitro activity (words): XDR clinical isolates
[3] = system: M. tuberculosis H37Rv (ATCC 27294); assay: MIC determination by broth dilution against M. tuberculosis H37Rv; type: cell-based, Mycobacterium tuberculosis; settings: for in vitro activity (words): M. tuberculosis H37Rv / sensitive isolates

Row | Structure (SMILES) | type of in vivo activity (log CFU in lungs versus early control) (M. tuberculosis H37Rv; 25 mg/kg oral, 4 weeks) | Log10 CFU/left Lung (mean ± SD) (M. tuberculosis H37Rv) | MIC ([1]; M. tuberculosis 617 MDR clinical isolate, broth dilution, 3 weeks) | in vitro activity (words) ([1]; listed as Compound 3f) | in vitro activity (words) ([1]; listed as compound 3f) | IC50 (extrapolate), cytotoxicity on AML-12 (AML-12 cells) | MIC ([2]; M. tuberculosis XDR-1 clinical isolate, broth dilution, 3 weeks) | in vitro activity (words) ([2]; listed as Compound 3f) | in vitro activity (words) ([2]; listed as compound 3f) | in vitro activity (words) ([3]; listed as Compound 3f) | in vitro activity (words) ([3]; listed as compound 3f) | MIC ([3]; M. tuberculosis H37Rv, broth dilution, 3 weeks at 37° C., read visually (no turbidity))
1 | CC1=C(OCCCCCCCCCCCCN2CCN(c3ccnc4cc(C(F)(F)F)ccc34)CC2)C(C)SC1=O (stereo not shown) [Compound 3f, 3,5-dimethyl-4-[(12-4-[7-(trifluoromethyl)-4-quinolyl]piperazinododecyl)oxy]-5H-thiophen-2-one] | bacteriostatic activity | 6.2 ± 0.34 Log10 CFU/left Lung | 0.5 µg/mL (≈ 0.845 µM) | active | exhibits in vitro activity | IC50 > 433 μg/ml (extrapolate) | 0.5 µg/mL (≈ 0.845 µM) | active | exhibits in vitro activity | active | exhibits in vitro activity | 0.5 µg/mL (≈ 0.845 µM)
2 | CO[C@H]1/C=C/O[C@@]2(C)Oc3c(C)c(O)c4c(O)c(c(/C=N/N5CCN(C)CC5)c(O)c4c3C2=O)NC(=O)/C(C)=C\C=C\[C@H](C)[C@H](O)[C@@H](C)[C@@H](O)[C@@H](C)[C@H](OC(C)=O)[C@@H]1C [RIF, Rifampicin, reference compound] |  | 2.0 ± 0.41 Log10 CFU/left Lung |  |  |  |  |  |  |  |  |  | 
